The source made the active and inactive calls. The rule behind the calls is not given here.
Columns and labels:
Plasmodium falciparum [1] = test: Antiplasmodial activity against chloroquine-resistant Plasmodium falciparum W2 infected in human erythrocytes assessed as reduction in parasitaemia up to 10 uM after 48 hrs by FACS; assay type: functional, organism-based
Plasmodium falciparum [2] = test: Antiplasmodial activity against chloroquine-resistant Plasmodium falciparum W2 infected in human erythrocytes assessed as reduction in parasitaemia after 48 hrs by FACS; assay type: functional, organism-based; details: W2, 48 h
Vero [3] = test: Cytotoxicity against african green monkey Vero cells at => 5000 ng/mL; assay type: cell-based; details: chlorocebus sabaeus
Vero [4] = test: Cytotoxicity against african green monkey Vero cells at 1200 ng/mL; assay type: cell-based; details: chlorocebus sabaeus

Row | Structure (SMILES) | IC50 (Plasmodium falciparum [2]) [nM] | further results
1 | C[C@@H]1[C@H]2[C@@H](O)[C@@]3([C@@H](C)CO)C=C[C@](C)(OO3)[C@H]2C[C@@H]1O |  | inhibition (Plasmodium falciparum [1]): inactive
2 | COc1ccc(CO[C@H]2C[C@H]3[C@@H]([C@H]2C)[C@H]2OC(=O)[C@H](C)[C@@]24CC[C@]3(C)OO4)cc1 | 370 | Activity (Vero [3]): Non-toxic
3 | C/C=C(/C)C(=O)O[C@H]1C(C)=C2[C@H]([C@@H]1OC(=O)CCCCCCC)[C@@](C)(OC(C)=O)C[C@H](OC(=O)CCC)[C@@]1(O)[C@H]2OC(=O)[C@@]1(C)O [THAPSIGARGIN] |  | Activity (Vero [4]): Toxic
4 | COc1ccc(CO[C@H]2C[C@H]3[C@@H]([C@H]2C)[C@@H](O)[C@@]2([C@@H](C)COC(C)=O)C=C[C@]3(C)OO2)cc1 |  | inhibition (Plasmodium falciparum [1]): inactive
5 | CC(=O)OC[C@H](C)[C@]12C=C[C@](C)(OO1)[C@H]1C[C@H](O)[C@H](C)[C@H]1[C@H]2O |  | inhibition (Plasmodium falciparum [1]): inactive
6 | COc1ccc(CO[C@H]2C[C@H]3[C@@H]([C@H]2C)[C@H]2OC(O)[C@H](C)[C@@]24CC[C@]3(C)OO4)cc1 (some centres not stated) |  | inhibition (Plasmodium falciparum [1]): inactive
7 | C[C@@H]1CC[C@H]2[C@@H](C)C(=O)O[C@@H]3O[C@@]4(C)CC[C@@H]1[C@]32OO4 [ARTEMISININ] | 5 | 
8 | CCO[C@H]1O[C@@H]2[C@@H]3[C@@H](C)[C@@H](OCc4ccc(OC)cc4)C[C@@H]3[C@]3(C)CC[C@]2(OO3)[C@H]1C | 24 | Activity (Vero [3]): Non-toxic
9 | CC(=O)OC[C@H](C)[C@]12C=C[C@](C)(OO1)[C@H]1CC(=O)[C@H](C)[C@H]1C2=O | 4600 | 
10 | CCO[C@@H]1O[C@@H]2[C@@H]3[C@@H](C)[C@@H](OCc4ccc(OC)cc4)C[C@@H]3[C@]3(C)C=C[C@]2(OO3)[C@H]1C | 620 | Activity (Vero [3]): Non-toxic
11 | C[C@H]1C(=O)C[C@H]2[C@@H]1[C@H]1OC(=O)[C@H](C)[C@@]13CC[C@]2(C)OO3 | 270 | 
12 | C[C@@H]1[C@H]2[C@H]3OC(=O)[C@H](C)[C@@]34CC[C@](C)(OO4)[C@H]2C[C@@H]1O | 610 | 
13 | COc1ccc(CO[C@H]2C[C@H]3[C@@H]([C@H]2C)[C@H]2OC(=O)[C@H](C)[C@@]24C=C[C@]3(C)OO4)cc1 | 290 | Activity (Vero [3]): Non-toxic
14 | CCO[C@H]1O[C@@H]2[C@@H]3[C@@H](C)[C@@H](OCc4ccc(OC)cc4)C[C@@H]3[C@]3(C)C=C[C@]2(OO3)[C@H]1C | 13 | Activity (Vero [3]): Non-toxic
15 | COc1ccc(CO[C@H]2C[C@H]3[C@@H]([C@H]2C)[C@@H](O)[C@@]2([C@@H](C)CO)C=C[C@]3(C)OO2)cc1 | 9110 | 
16 | COc1ccc(CO[C@H]2C[C@H]3[C@@H]([C@H]2C)[C@H]2OC[C@H](C)[C@@]24CC[C@]3(C)OO4)cc1 | 7500 | 
17 | CCO[C@@H]1O[C@@H]2[C@@H]3[C@@H](C)[C@@H](OCc4ccc(OC)cc4)C[C@@H]3[C@]3(C)CC[C@]2(OO3)[C@H]1C | 3400 | 
18 | COc1ccc(CO[C@H]2C[C@H]3[C@@H]([C@H]2C)[C@H]2OC(O)[C@H](C)[C@@]24C=C[C@]3(C)OO4)cc1 (some centres not stated) | 1040 | 
19 | COc1ccc(CO[C@H]2C[C@H]3[C@@H]([C@H]2C)[C@H]2OC[C@H](C)[C@@]24C=C[C@]3(C)OO4)cc1 | 230 | 
20 | C[C@@H]1[C@H]2[C@H]3OC[C@H](C)[C@@]34C=C[C@](C)(OO4)[C@H]2C[C@@H]1O | 570 | 
21 | C[C@@H]1[C@H]2[C@H]3OC(=O)[C@H](C)[C@@]34C=C[C@](C)(OO4)[C@H]2C[C@@H]1O | 1050 | 
22 | CC(=O)OC[C@H](C)[C@]12C=C[C@](C)(OO1)[C@H]1C[C@H](O)[C@H](C)[C@H]1C2=O |  | inhibition (Plasmodium falciparum [1]): inactive
